Key:
redroot pigweed = test: Test Example 5: herbicidal effect by foliage application, plastic box (Table 20, symbol N); type: in vivo, redroot pigweed (Amaranthus retroflexus); details: foliage application, three weeks after application
Method in brief: (§1)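 Foliar spray test: emulsion formulation diluted in water to a set application rate, sprayed onto 14-day-old plants raised in diluvial soil at 25° C to 30° C under glass. Both herbicidal effect and crop effect rated visually three weeks later.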

wild oat = test: Test Example 5: herbicidal effect by foliage application, plastic box (Table 20, symbol I); type: in vivo, wild oat (Avena fatua); details: foliage application, three weeks after application
Method in brief: as §1

barnyard grass [1] = test: Test Example 3: herbicidal effect by foliage application, Wagner pot (Table 18, symbol H); type: in vivo, barnyard grass (Echinochloa crus-galli)
Method in brief: (§2)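 Plants were sown in alluvial soil held under 0.1–0.5 cm standing water and grown 14 days in a greenhouse at 25–30 °C. An emulsifiable formulation, water-diluted to the set dose, was then sprayed onto the foliage, and effects were scored three weeks later using previously defined criteria.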

lambsquarters = test: Test Example 5: herbicidal effect by foliage application, plastic box (Table 20, symbol O); type: in vivo, lambsquarters (Chenopodium album); details: foliage application, three weeks after application
Method in brief: as §1

Chinese sprangletop = test: Test Example 3: herbicidal effect by foliage application, Wagner pot (Table 18, symbol D); type: in vivo, chinese sprangletop (Leptochloa chinensis)
Method in brief: as §2

chickweed = test: Test Example 5: herbicidal effect by foliage application, plastic box (Table 20, symbol P); type: in vivo, common chickweed (Stellaria media); details: foliage application, three weeks after application
Method in brief: as §1

green foxtail = test: Test Example 5: herbicidal effect by foliage application, plastic box (Table 20, symbol G); type: in vivo, green foxtail (Setaria viridis); details: foliage application, three weeks after application
Method in brief: as §1

velvetleaf = test: Test Example 5: herbicidal effect by foliage application, plastic box (Table 20, symbol M); type: in vivo, velvetleaf (Abutilon theophrasti); details: foliage application, three weeks after application
Method in brief: as §1

Italian ryegrass = test: Test Example 5: herbicidal effect by foliage application, plastic box (Table 20, symbol K); type: in vivo, Italian ryegrass (Lolium multiflorum); details: foliage application, three weeks after application
Method in brief: as §1

barnyard grass [2] = test: Test Example 5: herbicidal effect by foliage application, plastic box (Table 20, symbol H); type: in vivo, barnyard grass (Echinochloa crus-galli); details: foliage application, three weeks after application
Method in brief: as §1

false cleavers = test: Test Example 5: herbicidal effect by foliage application, plastic box (Table 20, symbol Q); type: in vivo, false cleavers (Galium spurium); details: foliage application, three weeks after application
Method in brief: as §1

blackgrass = test: Test Example 5: herbicidal effect by foliage application, plastic box (Table 20, symbol J); type: in vivo, blackgrass (Alopecurus myosuroides); details: foliage application, three weeks after application
Method in brief: as §1

rice flat sedge = test: Test Example 3: herbicidal effect by foliage application, Wagner pot (Table 18, symbol E); type: in vivo, rice flat sedge (Cyperus iria)
Method in brief: as §2

windgrass = test: Test Example 5: herbicidal effect by foliage application, plastic box (Table 20, symbol L); type: in vivo, windgrass (Apera spica-venti); details: foliage application, three weeks after application
Method in brief: as §1

southern crabgrass = test: Test Example 5: herbicidal effect by foliage application, plastic box (Table 20, symbol F); type: in vivo, southern crabgrass (Digitaria ciliaris); details: foliage application, three weeks after application
Method in brief: as §1

persian speedwell = test: Test Example 5: herbicidal effect by foliage application, plastic box (Table 20, symbol R); type: in vivo, Persian speedwell (Veronica persica); details: foliage application, three weeks after application
Method in brief: as §1

CCS(=O)(=O)c1ccccc1-c1sc2ccccc2c1-c1c(O)c(C)nn(C)c1=O [1-038] was tested, and the “herbicidal effect grade, N: redroot pigweed” value (redroot pigweed; 123 g/ha) was 0 (Herbicidal rate of 5% or less (almost no effect)), the “herbicidal effect grade, I: wild oat” value (wild oat; 123 g/ha) was 0 (Herbicidal rate of 5% or less (almost no effect)) and the “herbicidal effect on H (barnyard grass), rating 0-5” value (barnyard grass [1]; 123 g/ha) was 0 (Herbicidal rate of 5% or less (almost no effect)). For the same molecule, the “herbicidal effect grade, O: lambsquarters” value (lambsquarters; 123 g/ha) was 0 (Herbicidal rate of 5% or less (almost no effect)), the “herbicidal effect on D (Chinese sprangletop), rating 0-5” value (Chinese sprangletop; 123 g/ha) was 4 (Herbicidal rate of 70% or more and less than 90%) and the “herbicidal effect grade, P: chickweed” value (chickweed; 123 g/ha) was 5 (Herbicidal rate of 90% or more (almost completely withered)). For the same molecule, the “herbicidal effect grade, G: green foxtail” value (green foxtail; 123 g/ha) was 0 (Herbicidal rate of 5% or less (almost no effect)), the “herbicidal effect grade, M: velvetleaf” value (velvetleaf; 123 g/ha) was 0 (Herbicidal rate of 5% or less (almost no effect)) and the “herbicidal effect grade, K: Italian ryegrass” value (Italian ryegrass; 123 g/ha) was 0 (Herbicidal rate of 5% or less (almost no effect)). For the same molecule, the “herbicidal effect grade, H: barnyard grass” value (barnyard grass [2]; 123 g/ha) was 0 (Herbicidal rate of 5% or less (almost no effect)), the “herbicidal effect grade, Q: false cleavers” value (false cleavers; 123 g/ha) was 3 (Herbicidal rate of 40% or more and less than 70%) and the “herbicidal effect grade, J: blackgrass” value (blackgrass; 123 g/ha) was 0 (Herbicidal rate of 5% or less (almost no effect)). The “herbicidal effect on E (rice flat sedge), rating 0-5” value (rice flat sedge; 123 g/ha) was 3 (Herbicidal rate of 40% or more and less than 70%), the “herbicidal effect grade, L: windgrass” value (windgrass; 123 g/ha) was 0 (Herbicidal rate of 5% or less (almost no effect)) and the “herbicidal effect grade, F: southern crabgrass” value (southern crabgrass; 123 g/ha) was 0 (Herbicidal rate of 5% or less (almost no effect)). The “herbicidal effect grade, R: persian speedwell” value (persian speedwell; 123 g/ha) was 0 (Herbicidal rate of 5% or less (almost no effect)).

Cc1nn(C)c(=O)c(-c2c(-c3ccc(N(C)C)cc3)sc3ccccc23)c1O [1-039] was tested, and the “herbicidal effect grade, N: redroot pigweed” value (redroot pigweed; 295 g/ha) was 5 (Herbicidal rate of 90% or more (almost completely withered)), the “herbicidal effect grade, I: wild oat” value (wild oat; 295 g/ha) was 0 (Herbicidal rate of 5% or less (almost no effect)) and the “herbicidal effect on H (barnyard grass), rating 0-5” value (barnyard grass [1]; 295 g/ha) was 3 (Herbicidal rate of 40% or more and less than 70%). For the same molecule, the “herbicidal effect grade, O: lambsquarters” value (lambsquarters; 295 g/ha) was 4 (Herbicidal rate of 70% or more and less than 90%), the “herbicidal effect on D (Chinese sprangletop), rating 0-5” value (Chinese sprangletop; 295 g/ha) was 1 (Herbicidal rate of 5% or more and less than 20%) and the “herbicidal effect grade, P: chickweed” value (chickweed; 295 g/ha) was 5 (Herbicidal rate of 90% or more (almost completely withered)). For the same molecule, the “herbicidal effect grade, G: green foxtail” value (green foxtail; 295 g/ha) was 4 (Herbicidal rate of 70% or more and less than 90%), the “herbicidal effect grade, M: velvetleaf” value (velvetleaf; 295 g/ha) was 3 (Herbicidal rate of 40% or more and less than 70%) and the “herbicidal effect grade, K: Italian ryegrass” value (Italian ryegrass; 295 g/ha) was 2 (Herbicidal rate of 20% or more and less than 40%). The “herbicidal effect grade, H: barnyard grass” value (barnyard grass [2]; 295 g/ha) was 0 (Herbicidal rate of 5% or less (almost no effect)), the “herbicidal effect grade, Q: false cleavers” value (false cleavers; 295 g/ha) was 0 (Herbicidal rate of 5% or less (almost no effect)) and the “herbicidal effect grade, J: blackgrass” value (blackgrass; 295 g/ha) was 1 (Herbicidal rate of 5% or more and less than 20%). The “herbicidal effect on E (rice flat sedge), rating 0-5” value (rice flat sedge; 295 g/ha) was 3 (Herbicidal rate of 40% or more and less than 70%), the “herbicidal effect grade, L: windgrass” value (windgrass; 295 g/ha) was 0 (Herbicidal rate of 5% or less (almost no effect)) and the “herbicidal effect grade, F: southern crabgrass” value (southern crabgrass; 295 g/ha) was 3 (Herbicidal rate of 40% or more and less than 70%). The “herbicidal effect grade, R: persian speedwell” value (persian speedwell; 295 g/ha) was 5 (Herbicidal rate of 90% or more (almost completely withered)).
